# The source made the active and inactive calls.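 The calls were made as follows: active = a tumor-causing dose value with its tumor site reported for any sex and species group of a rodent or other animal cancer study; inconclusive = only studies judged inadequate by the national testing program; inactive = tested in at least one study, none positive.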
# Assay: DSSTox (CPDBAS) Carcinogenic Potency Database Summary SingleCellCall Results
# Conditions: animal chronic carcinogenicity bioassays, CPDB summary call
# Method in brief: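 Literature-derived summary: each substance receives an overall carcinogenic/non-carcinogenic category drawn from long-term bioassays in rats, mice, hamsters, dogs or primates, using the most positive sex-species experiment and minimal evidence criteria.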
row,Compound,outcome
1,C=CN1CCCC1=O,active; inactive
2,CC(=O)Nc1ccc(S(=O)(=O)c2ccc(NC(C)=O)cc2)cc1,active; inactive
3,CNC(=O)Oc1cc(C)c(N(C)C)c(C)c1,inactive
4,O=C1O[C@H]([C@@H](O)CO)C(O)=C1O,inactive
5,CN(C)CNc1nnc(/C=C/c2ccc([N+](=O)[O-])o2)o1,active
6,CCOC(=O)CC(SP(=O)(OC)OC)C(=O)OCC (stereo not given),inactive
7,NC(=O)OCC(COC(N)=O)c1ccccc1,active; inactive
8,CN(C)C(=O)COC(=O)Cc1ccc(OC(=O)c2ccc(N=C(N)N)cc2)cc1,inactive
9,Cc1[nH]cnc1CSCCN=C(NC#N)N(C)N=O,inactive; active
10,C[C@]12C=CC(=O)C=C1CC[C@@H]1[C@@H]2[C@@H](O)C[C@@]2(C)[C@H]1CC[C@]2(O)C(=O)CO,active
11,CNCCC(Oc1ccc(C(F)(F)F)cc1)c1ccccc1 (stereo not given),inactive; active
12,[Cl-].[Cl-].[Cl-].[Fe+3],inactive
13,CN(C)C(=S)SC(=S)N(C)C,inactive
14,BrC(Br)Br,active; inactive
15,ClC(Br)Br,active
16,ClC(Cl)(Cl)Cl,active; inactive
17,CCC1(c2ccccc2)C(=O)N=C(O)NC1=O (stereo not given),active
18,ClCc1ccccn1,inactive
19,CC/C(=C(/CC)c1ccc(O)cc1)c1ccc(O)cc1,active
20,Cc1c2ccccc2c(C)c2c1ccc1ccccc12,active; inactive
21,c1ccc2[nH]c(-c3cscn3)nc2c1,inactive
22,CC(=O)OCC(=O)[C@@]12N=C(C)O[C@@H]1C[C@H]1[C@@H]3CCC4=CC(=O)C=C[C@]4(C)[C@H]3[C@@H](O)C[C@@]12C,active
23,Oc1c(Cl)cc(Cl)cc1Sc1cc(Cl)cc(Cl)c1O,inactive
24,N/C(=N\O)c1ccc([N+](=O)[O-])o1,inactive
25,CCCCCc1cc(O)c2c(c1)OC(C)(C)[C@@H]1CCC(C)=C[C@@H]21,inactive; active
26,CCOC(=O)CC(SP(=S)(OC)OC)C(=O)OCC (stereo not given),inactive

row,Compound,outcome
1,S=c1[nH]c2ccccc2s1,active
2,NC(Cc1ccc(O)c(O)c1)C(=O)O (stereo not given),inactive
3,C/C=C/C=O,active
4,Cc1cn([C@H]2C[C@H](N=[N+]=[N-])[C@@H](CO)O2)c(=O)[nH]c1=O,active
5,COc1cc2c(c3oc(=O)c4c(c13)CCC4=O)C1C=COC1O2 (stereo not given),active
6,S=C=Nc1ccccc1,inactive
7,C1CCC(C(CC2CCCCN2)C2CCCCC2)CC1 (stereo not given),inactive
8,C1CC2OC2CC1C1CO1 (stereo not given),inactive
9,FC(F)OC(F)(F)C(F)Cl (stereo not given),inactive
10,C[C@@H]1CCCCN1N=O,active
11,CC1=C(CC(=O)O)c2cc(F)ccc2/C1=C\c1ccc(S(C)(=O)=O)cc1,inactive
12,Nc1ccc([N+](=O)[O-])cc1O,active
13,O=C1CCO1,active; inactive
14,CN(C)CCO,inactive; active
15,Clc1cc2c(c(Cl)c1Cl)Oc1c(cc(Cl)c(Cl)c1Cl)O2,active
16,S=[Se],active
17,Nc1ccc([N+](=O)[O-])cc1,inactive; active
18,Nc1ccc(Cl)cc1N,active
19,CN(C)N,active
20,ClC1(Cl)C2(Cl)C3C4(Cl)C1(Cl)C1(Cl)C4(Cl)C(Cl)(Cl)C3(Cl)C21Cl (stereo not given),active; inactive
21,CNC[C@H](O)c1ccc(O)c(O)c1,inactive
22,FC(F)=C(F)F,active; inactive
23,CC1(C)O[C@@H]2C[C@H]3[C@@H]4CCC5=CC(=O)C=C[C@]5(C)[C@@]4(F)[C@@H](O)C[C@]3(C)[C@]2(C(=O)CO)O1,active
24,NCCCC(N)(C(=O)O)C(F)F (stereo not given),inactive
25,Cc1ncc[nH]1,active
26,O=C1CCCCCN1,inactive

row,Compound,outcome
1,C/C=C/c1ccc2c(c1)OCO2,inactive
2,CCCOC(=O)C1c2cc3c(cc2CC(C)C1C(=O)OCCC)OCO3 (stereo not given),inactive
3,C=CC1CC=CCC1 (stereo not given),active
4,S=C1NCCN1,active; inactive
5,CC(=O)NNc1ccccc1,active
6,Nc1ccc(N=Nc2ccc(-c3ccc(N=Nc4c(S(=O)(=O)O)cc5cc(S(=O)(=O)O)c(N=Nc6ccccc6)c(O)c5c4N)cc3)cc2)c(N)c1,active; inactive
7,C[C@@H]1C/C=C/C=C/C=C/C=C/[C@H](O[C@@H]2O[C@H](C)[C@@H](O)[C@H](N)[C@@H]2O)C[C@@H]2O[C@](O)(C[C@@H](O)C[C@H]3O[C@@H]3/C=C/C(=O)O1)C[C@H](O)[C@H]2C(=O)O,inactive
8,C=C/C=N/O,inactive
9,O=NN1CCCC1c1ccc[n+]([O-])c1 (stereo not given),active; inactive
10,Cc1ccc(OP(=O)(Oc2ccc(C)cc2)Oc2ccc(C)cc2)cc1,inactive
11,CN1C(=O)OC(C)(C)C1=O,inactive
12,Clc1nc(Cl)nc(Nc2ccccc2Cl)n1,inactive
13,COC1[C@@H](O[C@@H]2O[C@H](C)[C@@H](O[C@H]3C[C@@](C)(O)[C@H](OC(=O)CC(C)C)[C@H](C)O3)[C@H](N(C)C)[C@H]2O)[C@@H](CC=O)C[C@@H](C)[C@@H](O)/C=C/C=C/C[C@@H](C)OC(=O)C[C@H]1OC(C)=O (stereo not given in full),inactive; active
14,COc1cc(-c2ccc(N=C=O)c(OC)c2)ccc1N=C=O,active
15,CN(C)C(=O)Nc1ccc(Cl)c(Cl)c1,inactive
16,Oc1c(Cl)cc(Cl)c(Cl)c1Cc1c(O)c(Cl)cc(Cl)c1Cl,inactive
17,O=S1OCCO1,inactive
18,CCCN(CCC)N=O,active
19,CCNC(=S)NCC,active
20,Nc1ccc2ccccc2c1,active
21,Cc1ccc2cc3c(ccc4ccccc43)c3c2c1CC3,active; inactive
22,O=P(O)(OCC(Br)CBr)OCC(Br)CBr (stereo not given),active; inactive
23,COc1c(Cl)c(Cl)c(Cl)c(Cl)c1Cl,active
24,Cc1ccc2c(c1[N+](=O)[O-])C(=O)c1ccccc1C2=O,active
25,Cc1cc(OC(=O)N(C)C)n(C(C)C)n1,inactive; active
26,Brc1cc(Br)c(-c2c(Br)c(Br)c(Br)c(Br)c2Br)c(Br)c1Br,active; inactive

row,Compound,outcome
1,Cc1cc(=O)n(-c2ccccc2)n1C,active; inactive
2,Cc1cnc(NC(=O)C2=C(O)c3ccccc3S(=O)(=O)N2C)s1,inactive
3,CN(N=O)c1ccncc1,inactive; active
4,CN(C)c1ccc(C(=N)c2ccc(N(C)C)cc2)cc1,active
5,CCCCCNN,active
6,Nc1ccc(Oc2ccc(N)c(N)c2)cc1,active
7,OCCN(CCO)C(=S)S,active
8,CC(C)Oc1ccc(Nc2ccccc2)cc1,inactive
9,NNc1nc(-c2ccccc2)cs1,inactive
10,O=CNNC=O,active
11,Oc1ccccc1-c1ccccc1,active
12,Nc1ccc(-c2ccc(N)c(N)c2)cc1N,active
13,COC(N)=O,active
14,O=NN(c1ccccc1)c1ccccc1,active; inactive
15,C=CCCl,inactive; active
16,OCC(O)CO,inactive
17,Cn1cnc2nc(N)[nH]c(=O)c21,inactive
18,CN(N=O)c1ccc(/C=C/c2ccnc3ccccc23)cc1,active
19,CCCCOC(=O)c1ccc(O)cc1,inactive; active
20,O=C(O)c1ccc(N=Nc2ccc(O)c(C(=O)O)c2)cc1,inactive
21,Nc1nc(/C=C/c2ccc([N+](=O)[O-])o2)no1,active
22,CC(=O)OC/C=C(C)/C=C/C=C(C)/C=C/C1=C(C)CCCC1(C)C,active; inactive
23,CCc1cc(C(N)=S)ccn1,active; inactive
24,Cc1ccc(N)c(C)c1,active
25,C=C(C)C,active
26,Clc1ccc(C(c2ccccc2Cl)C(Cl)Cl)cc1 (stereo not given),inactive

row,Compound,outcome
1,O=c1cc[nH]c(=O)[nH]1,active; inactive
2,CN(C)C(=S)[S-].CN(C)C(=S)[S-].[Cu+2],inactive
3,S=C(S)NCCNC(=S)S,inactive
4,O=NN1CCCCC1,active; inactive
5,COS(C)(=O)=O,active; inactive
6,Cc1c(N(C)C)c(=O)n(-c2ccccc2)n1C,inactive
7,CC(C)C(C(=O)OC(C#N)c1cccc(Oc2ccccc2)c1)c1ccc(Cl)cc1 (stereo not given),inactive
8,P,inactive
9,c1ccc2ccccc2c1,active
10,Cc1cc(O)c2c(c1O)C(=O)C13C(=C2O)C(=O)C2C(O)C1C1C(O)C3C(=O)C3=C(O)c4c(O)cc(C)c(O)c4C(=O)C321 (stereo not given),active
11,O=C1O[C@H]([C@H](O)CO)C(O)=C1O,inactive; active
12,CN(C)CCOc1ccc(/C(=C(/CCCl)c2ccccc2)c2ccccc2)cc1,inactive
13,CCN(CC)C(=O)/C(Cl)=C(\C)OP(=O)(OC)OC,inactive
14,CCCCC(CC)COP(=O)(OCC(CC)CCCC)OCC(CC)CCCC (stereo not given),active
15,CC/C=C(/CC)[N+](=O)[O-],active
16,CC(O)COC(C)(C)C (stereo not given),active
17,O=C(Nc1nc(-c2ccc([N+](=O)[O-])o2)cs1)C(F)(F)F,active
18,CCCCCCC(=O)/C=C/CCCCCCCCC(=O)OC,inactive; active
19,CC(O)c1ccccc1 (stereo not given),active; inactive
20,CCN=[N+]([O-])CC,active
21,O=C1OC(c2ccc(O)cc2)(c2ccc(O)cc2)c2ccccc21,active
22,O=NN1CCOC1=O,active; inactive
23,C=CC(=C)C,active
24,c1ccncc1,active
25,CN(C)CCC(c1ccc(Cl)cc1)c1ccccn1 (stereo not given),inactive
26,C/C=C/C(=O)Oc1c(C(C)CCCCCC)cc([N+](=O)[O-])cc1[N+](=O)[O-] (stereo not given),inactive

# Source: PubChem BioAssay AID1189 (EPA DSSTox, 2008)
